Source: the supplement of paper PMC11616607

How the values were obtained:
Test in all cases: drug sensitivity score (DSS) from 5-point dose-response viability curve (DSS (area-under-curve based score)); higher = more sensitive (stronger growth inhibition or killing); extreme values may be limits of the assay
Settings in all cases: exposure time: 72 h; concentration range: 5 concentrations over 10,000-fold range
OVCAR8 = test system: OVCAR8
Method in brief: (§1)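 Ovarian cancer and normal ovarian cell lines were tested in 384-well plates, with drugs dispensed acoustically (Echo 550) in DMSO or water at five concentrations covering a 10,000-fold range. After 1,500 cells per well were added, plates were incubated for 3 days at 37°C and 5% CO2, and viability was read by CellTiter-Glo luminescence on a PHERAstar FS. Breeze software gave a drug sensitivity score for each cell line and drug, where a higher score means greater sensitivity. A value of zero means no response.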

COV318 = test system: COV318
Method in brief: as §1

OVCAR4 = test system: OVCAR4
Method in brief: as §1

OV90 = test system: OV90
Method in brief: as §1

HOSE2C = test system: HOSE2C
Method in brief: as §1

HOSE1C = test system: HOSE1C
Method in brief: as §1

Kuramochi = test system: Kuramochi
Method in brief: as §1

Ovsaho = test system: Ovsaho
Method in brief: as §1

OVCAR5 = test system: OVCAR5
Method in brief: as §1

COV362 = test system: COV362
Method in brief: as §1

CAOV3 = test system: CAOV3
Method in brief: as §1

JHOS2 = test system: JHOS2
Method in brief: as §1

Row | SMILES | drug sensitivity score (OVCAR8) | drug sensitivity score (COV318) | drug sensitivity score (OVCAR4) | drug sensitivity score (OV90) | drug sensitivity score (HOSE2C) | drug sensitivity score (HOSE1C) | drug sensitivity score (Kuramochi) | drug sensitivity score (Ovsaho) | drug sensitivity score (OVCAR5) | drug sensitivity score (COV362) | drug sensitivity score (CAOV3) | drug sensitivity score (JHOS2)
1 | C=C1C[C@@H]2CC[C@@]34C[C@H]5O[C@H]6[C@@H](O3)[C@H]3O[C@H](CC[C@@H]3O[C@H]6[C@H]5O4)CC(=O)C[C@@H]3[C@@H](OC)[C@@H](C[C@H](O)CN)O[C@H]3C[C@H]3O[C@@H](CC[C@@H]1O2)C[C@@H](C)C3=C [Eribulin] | 24 | 4.2 | 6.3 | 20.3 | 24.3 | 25.8 | 12.9 | 12 | 20.5 | 7.9 | 25.8 | 9.1
2 | C#Cc1cccc(Nc2ncnc3cc(OCCOC)c(OCCOC)cc23)c1 [Erlotinib] | 2.5 | 0.8 | 2 | 1.5 | 0.3 | 0 | 1.6 | 4.8 | 4.4 | 0.1 | 7.5 | 3
3 | COc1cc([C@@H]2c3cc4c(cc3[C@@H](O[C@@H]3O[C@@H]5CO[C@@H](C)O[C@H]5[C@H](O)[C@H]3O)[C@H]3COC(=O)[C@H]23)OCO4)cc(OC)c1O [Etoposide] | 8.6 | 1.7 | 0 | 6.1 | 10.1 | 6.5 | 1.8 | 7 | 4.1 | 0.1 | 9.2 | 4.5
4 | CO[C@H]1C[C@@H]2CC[C@@H](C)[C@@](O)(O2)C(=O)C(=O)N2CCCC[C@H]2C(=O)O[C@H]([C@H](C)C[C@@H]2CC[C@@H](OCCO)[C@H](OC)C2)CC(=O)[C@H](C)/C=C(\C)[C@@H](O)[C@@H](OC)C(=O)[C@H](C)C[C@H](C)/C=C/C=C/C=C/1C [Everolimus] | 5.5 | 2.2 | 2.5 | 10 | 6.3 | 4.3 | 5.9 | 4 | 6.2 | 0.6 | 4.8 | 4.7
5 | C=C1C[C@@H]2[C@H](CC[C@]3(C)C(=O)CC[C@@H]23)[C@@]2(C)C=CC(=O)C=C12 [Exemestane] | 0 | 0 | 0 | 0.4 | 0 | 0 | 0 | 0 | 0 | 0 | 0 | 0
6 | CCn1c(=O)c(-c2ccc(Cl)cc2Cl)cc2cnc(Nc3ccc(N4CCNCC4)c(F)c3)nc21 [FRAX486] | 3.8 | 4.2 | 5.1 | 5.5 | 12.1 | 7.6 | 4.3 | 7 | 4.9 | 6.3 | 4.2 | 3.7
7 | Cc1cnc(Nc2ccc(OCCN3CCCC3)cc2)nc1Nc1cccc(S(=O)(=O)NC(C)(C)C)c1 [Fedratinib] | 7.1 | 3.7 | 5.2 | 8.8 | 8.5 | 7.1 | 7.7 | 7.4 | 7.2 | 6.1 | 6.5 | 5.3
8 | CON(C)C(=O)N1N=C(c2cc(F)ccc2F)S[C@@]1(CCCN)c1ccccc1 [Filanesib] | 17.7 | 8.7 | 6.8 | 10.8 | 16.2 | 21.8 | 9.5 | 8.8 | 17.6 | 1.4 | 21.3 | 7.4
9 | O=C(Nc1nc2cccc(-c3ccc(CN4CCS(=O)(=O)CC4)cc3)n2n1)C1CC1 [Filgotinib] | 2.5 | 3.4 | 2.6 | 3.2 | 0 | 0.1 | 5.1 | 2.5 | 1.8 | 0.2 | 2.3 | 1.1
10 | CC(C)(C)NC(=O)[C@H]1CC[C@H]2[C@@H]3CC[C@H]4NC(=O)C=C[C@]4(C)[C@H]3CC[C@]12C [Finasteride] | 0 | 0 | 0 | 0 | 0 | 0 | 0 | 0 | 0 | 0 | 0 | 0
11 | CCCCCCCCc1ccc(CCC(N)(CO)CO)cc1 [Fingolimod] | 6.8 | 7 | 7.5 | 6.2 | 5.4 | 7.4 | 7.5 | 7.6 | 6.4 | 6.2 | 6 | 5.5
12 | O=c1[nH]c(=O)n([C@H]2C[C@H](O)[C@@H](CO)O2)cc1F [Floxuridine] | 18.1 | 0 | 9.3 | 12.3 | 2.5 | 4.7 | 8.7 | 6.2 | 8.1 | 5.4 | 14.3 | 0.8
13 | Nc1nc(F)nc2c1ncn2[C@@H]1O[C@H](CO)[C@@H](O)[C@@H]1O [Fludarabine] | 4.4 | 0 | 0.2 | 1.5 | 22.6 | 25.2 | 0 | 0.1 | 0 | 0.5 | 0.2 | 0
14 | O=c1[nH]cc(F)c(=O)[nH]1 [Fluorouracil] | 2.3 | 0 | 0 | 2.3 | 0 | 2.5 | 0.6 | 2.6 | 2.7 | 0 | 2 | 0
15 | CC(C)C(=O)Nc1ccc([N+](=O)[O-])c(C(F)(F)F)c1 [Flutamide] | 0.3 | 0.2 | 0.5 | 0 | 0 | 0.2 | 0.7 | 0 | 0.1 | 0 | 0 | 0.3
16 | COc1cc2c(Oc3ccc(NC(=O)C4(C(=O)Nc5ccc(F)cc5)CC4)cc3F)ccnc2cc1OCCCN1CCOCC1 [Foretinib] | 1 | 1.3 | 3.2 | 3.8 | 4.5 | 1.9 | 2.7 | 1.9 | 5.3 | 1.2 | 6.9 | 0.5
17 | COc1cc(Nc2ncc(F)c(Nc3ccc4c(n3)N(COP(=O)(O)O)C(=O)C(C)(C)O4)n2)cc(OC)c1OC [Fostamatinib] | 0.3 | 1.5 | 2.9 | 2.9 | 8.4 | 2 | 2.4 | 2.4 | 3.7 | 0.8 | 0 | 0.8
18 | C[C@]12CC[C@@H]3c4ccc(O)cc4C[C@@H](CCCCCCCCC[S+]([O-])CCCC(F)(F)C(F)(F)F)[C@H]3[C@@H]1CC[C@@H]2O (stereo not given in full) [Fulvestrant] | 0 | 0 | 0 | 0 | 0 | 0 | 0 | 0 | 0 | 0 | 0 | 0
19 | O=C(NOCCO)c1ccc2cncn2c1Nc1ccc(I)cc1F [GDC-0623] | 0.4 | 0 | 6.3 | 16.3 | 1.3 | 0 | 0.1 | 0.8 | 6.1 | 2.3 | 5 | 0.6
20 | C[C@H]1CN(C2COC2)CCN1c1ccc(Nc2cc(-c3ccnc(N4CCn5c(cc6c5CC(C)(C)C6)C4=O)c3CO)cn(C)c2=O)nc1 [GDC-0853] | 0 | 0 | 0 | 0 | 0 | 0 | 0 | 0 | 0 | 0 | 0 | 0
21 | O[C@H](C[C@H]1c2c(F)cccc2-c2cncn21)[C@H]1CC[C@H](O)CC1 [GDC-0919] | 0.7 | 3 | 0.8 | 0 | 0 | 0 | 0.1 | 0 | 0.6 | 0 | 0.1 | 0.4
22 | CNc1nc(Nc2cn(C(C)(C)C#N)nc2C)ncc1C(F)(F)F [GNE-0877] | 0 | 0 | 0 | 0 | 0 | 0 | 0 | 0 | 0 | 0 | 0 | 0
23 | CCNc1nc(Nc2cc(F)c(C(=O)N3CCOCC3)cc2OC)ncc1C(F)(F)F [GNE-7915] | 0 | 0 | 0 | 0 | 0 | 0 | 0 | 0 | 0 | 0 | 0 | 0
24 | CCCc1cc(C)[nH]c(=O)c1CNC(=O)c1cc(-c2ccnc(N3CCN(C)CC3)c2)cc2c1cnn2C(C)C [GSK343] | 0 | 0 | 0 | 0 | 0 | 0 | 0 | 0 | 0 | 0 | 0 | 0
25 | CCCOc1ccn2c(C(C)=O)cc(-c3ccccc3S(C)(=O)=O)c2c1 [GSK2801] | 0 | 0 | 0 | 0 | 0 | 0 | 0.4 | 0 | 0 | 0 | 0 | 0
26 | CCOC(=O)CCNc1cc(N2CCc3ccccc3CC2)nc(-c2ccccn2)n1 [GSK-J4] | 1.5 | 6.9 | 2.9 | 4.6 | 0.8 | 2.5 | 9 | 1.9 | 0.6 | 0 | 1.6 | 0
27 | C[C@@H]1C=C2C(=O)O[C@@H]3CC[C@H](C1)[C@]23O [Galiellalactone] | 3.6 | 3.8 | 6.5 | 7.1 | 7.3 | 8.1 | 0 | 4.6 | 7.6 | 2.9 | 6.1 | 5.6
28 | Cc1cccc(-c2nn3c(c2-c2ccnc4ccc(C(N)=O)cc24)CCC3)n1 [Galunisertib] | 0 | 0.3 | 0 | 0 | 0 | 0 | 0 | 0 | 0 | 1.8 | 0 | 0
29 | Cc1cc(Nc2cc(CN3CCOCC3)c3nc(C)c(Cc4ccc(Cl)cc4F)n3n2)n[nH]1 [Gandotinib] | 7.1 | 4.9 | 4 | 4.1 | 8.9 | 5.9 | 5.9 | 6.7 | 5.8 | 4.6 | 5.9 | 3.1
30 | CC(C)c1cc(-c2n[nH]c(=O)n2-c2ccc3c(ccn3C)c2)c(O)cc1O [Ganetespib] | 17 | 10.3 | 11.3 | 15.3 | 26.1 | 22.9 | 11.9 | 5 | 13.6 | 12.7 | 16.2 | 18
